Test results reported in paper PMC3934827 (Neuropharmacology, 2014).
Like-named read-outs stand apart in the source and are kept apart here.

Columns and labels:
[1] = tested on: finger dexterity / fast hand movements; experiment: Klüver Board test; type: in vivo, Rhesus monkeys (Macaca mulatta)
[2] = tested on: cortical-, extrapyramidal motor- and autonomic-mediated functions; experiment: Drug Effects on Nervous System
[3] = tested on: parkinsonian motor effects; experiment: Standardized motor disability scale for parkinsonian primates; type: in vivo, Rhesus monkeys (Macaca mulatta)
D2 receptor = conditions: ref Olsen et al., 2008; cited from earlier work
[4] = rat; ref Schmidt et al, 2008; cited from earlier work
PDE10A = experiment: Estimated PDE10A target occupancy; type: in vivo, Rhesus monkeys (Macaca mulatta); conditions: calculated from Cp,u with IC50 1.0 nM
[5] = mouse; ref Verhoest et al, 2009; cited from earlier work
brain [18F] FDG uptake = experiment: [18F] Fluorodeoxyglucose-PET imaging of brain; type: in vivo, Rhesus monkeys (Macaca mulatta)
psychotic symptoms = conditions: ref DeMartinis, 2012, cited from earlier work
[6] = Plasma levels of MP-10 after subcutaneous administration; conditions: rhesus monkey, sc
stability and balance = experiment: Perch test; type: in vivo, Rhesus monkeys (Macaca mulatta); conditions: MP-10 0.21 or 0.67 mg/kg s.c.
[7] = tested on: blood-brain barrier efflux transporters; conditions: ref Verhoest et al, 2009; cited from earlier work
[8] = risperidone 0.032 and 0.1 mg/kg s.c.
[9] = MP-10 doses up to 0.21 mg/kg s.c.
[10] = MP-10 0.67 and 1.33 mg/kg s.c., p < 0.001

With `Cc1nc2n(c(=O)c1CCN1CCC(c3noc4cc(F)ccc34)CC1)CCCC2` [risperidone, reference compound] the “Klüver board action time, baseline vs 90 min” value ([1]; risperidone 0.01 mg/kg s.c.) was “No significant differences”, the “Klüver board action time” value ([1]; risperidone 0.032 and 0.1 mg/kg s.c., at cut off) was 60 s and the “behaviors scored using the DENS scale” value ([2]; risperidone 0.01 mg/kg s.c.) was “minimal effects”. For the same compound, the DENS involuntary movements ([2]; risperidone 0.032 mg/kg s.c., all monkeys) was “significant involuntary movements”, the “intensity of involuntary movements” value ([2]; risperidone 0.1 mg/kg s.c. vs 0.032 mg/kg) was “further increased” and the “DENS attentiveness, compared with MP-10” value ([2]; risperidone s.c.) was “less impairment”. The “DENS reactivity, compared with MP-10” value ([2]; risperidone s.c.) was “less impairment”, the “motor disability scores (motor behavior)” value ([3]; risperidone 0.01 mg/kg s.c., 3 hours after administration) was “no effect” and the “hand movement score, in comparison to MP-10” value [3, 8] was “greater, dose-dependent increases”. For the same compound, the “leg movement score, in comparison to MP-10” value [3, 8] was “greater, dose-dependent increases”, the “mobility score, in comparison to MP-10” value [3, 8] was “notably less effect” and the “posture score, in comparison to MP-10” value [3, 8] was “roughly comparable increases”. For the same compound, the motor disability scores ([3]; risperidone 0.032 and 0.1 mg/kg s.c., dose- and time-dependent, p < 0.001) was “significant increases” and the “D2 receptor TO at which antipsychotic efficacy is observed” value (D2 receptor) was greater than 55%.

In the case of `Cn1cc(-c2ccncc2)c(-c2ccc(OCc3ccc4ccccc4n3)cc2)n1` [MP-10, 2-[4-(1-methyl-4-pyridin-4-yl-1H-pyrazol-3-yl)-phenoxymethyl]-quinoline], the “brain-to-plasma ratio (total brain-to-total plasma concentrations)” value [4] is given as ~ 0.9, the “projected PDE10A target occupancy” value (PDE10A; 0.21 mg/kg s.c., 1 h) is given as 16 ± 1% and the “projected PDE10A target occupancy” value (PDE10A; 0.21 mg/kg s.c., 2 h) is given as 19 ± 3%. For the same compound, the “projected PDE10A target occupancy” value (PDE10A; 0.21 mg/kg s.c., 3 h) was 17 ± 1%, the “projected PDE10A target occupancy” value (PDE10A; 0.67 mg/kg s.c., 1 h) was 41 ± 5% and the “projected PDE10A target occupancy” value (PDE10A; 0.67 mg/kg s.c., 2 h) was 47 ± 2%. The “projected PDE10A target occupancy” value (PDE10A; 0.67 mg/kg s.c., 3 h) was 42 ± 3%, the “brain-to-plasma ratio (total brain-to-total plasma concentrations)” value [5] was ~ 0.9 and the “Klüver board task performance” value ([1]; MP-10 0.67 and 1.33 mg/kg s.c.) was “failed to perform the task”. The “Klüver board index of success” value [1, 9] was “no effect”, the “Klüver board action time” value ([1]; MP-10 doses up to 0.21 mg/kg s.c., 90 min after injection) was “no effect” and the DENS attentiveness [2, 10] was “decreased attentiveness”. For the same compound, the DENS involuntary movements [2, 10] was “induced oral dyskinesias”, the DENS reactivity [2, 10] was “decreased attentiveness and reactivity” and the “total DENS scores” value [2, 10] was “significant effects”. For the same compound, the DENS involuntary movements [2, 9] was “no effect”, the DENS salivation ([2]; MP-10 s.c.) was “non-significant increases” and the “SUV of [18F] FDG in striatal regions (pooled) vs vehicle” value (brain [18F] FDG uptake; MP-10 0.211 or 1.33 mg/kg s.c., p < 0.01, n=4) was “statistically significant increases”. For the same compound, the “SUV of [18F] FDG in cortical regions (pooled) vs vehicle” value (brain [18F] FDG uptake; MP-10 0.211 or 1.33 mg/kg s.c., p < 0.02, n=4) was “statistically significant increases”, the “FDG SUV in other brain regions relative to control (vehicle)” value (brain [18F] FDG uptake; two doses of MP-10 (0.21, 1.33 mg/kg s.c.)) was “No significant differences” and the “primary endpoint: reduction in psychotic symptoms” value (psychotic symptoms; Phase 2A trial NCT01175135) was “did not meet the primary endpoint”. The “adverse effects in Phase 2A trial” value (psychotic symptoms) was “sedation and side effects consistent with target engagement”, the “global motor disability scores” value ([3]; MP-10 0.021, 0.067, or 0.21 mg/kg s.c., 3 hours after administration) was “no effect” and the social interaction ([3]; MP-10 0.67 and 1.33 mg/kg s.c., similar at both doses, p < 0.001) was “decrease in social interaction”. The “impairment in hand movements” value [3, 10] was “mild and similar at both doses”, the “impairment in leg movements” value [3, 10] was “mild and similar at both doses” and the mobility score [3, 10] was “increased in a dose dependent fashion”. The posture score [3, 10] was “increased in a dose dependent fashion”, the “global motor disability scores” value ([3]; MP-10 0.67 and 1.33 mg/kg s.c., p < 0.001, 3 of the 4 monkeys) was “increase in global scores” and the Tmax [6] was 1 to 2 h. For the same compound, the Perch test performance (stability and balance) was “did not show any compromise”, the “Perch test scores before and 90 min after injection” value (stability and balance) was “zero” and the “substrate for blood-brain barrier efflux transporters” value [7] was “no evidence that it is a substrate”.
